Entries after “also recorded” stand apart in the source; their conditions may differ.
What was measured:
[1] = tested on: human primed state stem cells; assay: stem cell drug screening assay on primed state stem cells; type: cell-based; details: treated for 3 days, bFGF absent
Protocol: The stem cell screening assay, was performed in both the presence and absence of the stem cell growth factors: NME7AB for growing naïve stem cells or FGF for growing primed stem cells. If the cognate growth factor was present, then the biological or small molecule would have to compete away the growth factor to get an effect. Therefore, we expected to see more of an effect when the growth factor, FGF for primed stem cells or NME7AB or NME1 dimers for naïve stem cells, was absent. The effect of the compounds on stem cells was visually determined and compounds were ranked 0-4, with 4 being the greatest effect and 0 being no observable effect. The major effect that was observed was a change from pluripotent stem cell morphology, which is a cobblestone pattern of small round cells with a large nucleus to cytoplasm ratio, to that of differentiating stem cells, which are elongated, large and flattened cells with a smaller nucleus to cytoplasm ratio. […] The compounds were added to a final concentration of 6 uM to either naïve state stem cells or primed state stem cells. In this particular case, the naïve state stem cells were maintained in a naïve state by culturing in a media containing NME7AB or NME1 dimers. However, other methods such as 2i and 5i (Silva et al., 2008, Nichols and Smith, 2009, Theunissen et al., 2014)] can be used to maintain stem cells in a more naïve state. In this case primed state stem cells were cultured in bFGF over a layer of MEFs, although it is known that any bFGF containing media will maintain stem cells in the primed state.
Stem cells whether embryonic or induced pluripotent stem (iPS) cells were cultured in a minimal, serum-free media that contained human recombinant bFGF at a concentration of 8 ng/mL. The stem cells were plated over a layer of inactivated mouse embryonic fibroblasts, aka MEFs, which secrete additional uncharacterized growth factors and cytokines.
Human naïve state and primed stem cells were cultured in parallel for at least 5 passages to guarantee normal differentiation-free growth. The stem cells were plated in 12-well cell culture plates with 50,000 cells per well. Cells were cultured in their respective media, either bFGF media or NME7AB media for 24 hours. Media was then removed and replaced with media devoid of bFGF or NME7AB, when indicated. Agents being tested for their ability to induce differentiation of naïve stem cells were added to the media at the concentrations indicated. After 72 hours, photographs were taken see FIGS. 1-10.
Human naïve state and primed stem cells were cultured in parallel for at least 5 passages to guarantee normal differentiation-free growth. The stem cells were plated in 12-well cell culture plates with 50,000 cells per well. Cells were cultured in their respective media, either bFGF media or NME7AB media for 24 hours. Media was then removed and replaced with media devoid of bFGF or NME7AB. […] Media was changed after 48 hours and replaced with fresh media containing the BRD4 inhibitors. After 4 days the experiment was stopped. Photographs were taken and cell pellets collected for further analysis, see FIGS. 11-16.

[2] = tested on: T47D breast cancer cells; assay: cancer cell proliferation assay (Calcein live cell stain); type: cell-based, human; details: live cell Calcein stain, 96 hours (FIG. 113)
[3] = tested on: E-cadherin, fibronectin, vimentin and NF1 expression in naïve stem cells; assay: RT-PCR of differentiation markers in treated naïve stem cells; type: cell-based, human
Protocol: FIG. 161 is a graph of RT-PCR measurement of naïve stem cells that have been treated with compounds of the invention. The genes whose expression is measured are E-cadherin, which goes […] as cells undergo epithelial to mesenchymal transition, fibronectin and vimentin, which both increase as stem cells initiate differentiation and NF1, which is one of the first genes to increase when stem cells begin to differentiate down the neural lineage. […] E-cadherin is the opposite; it […] as cells become cancerous. […] Expression of metastatic marker E-cadherin was reduced and expression of differentiation markers fibronectin, vimentin and NF1 were increased (FIG. 162-FIG. 163). Novel compounds of the invention are highly specific. […] Although we discovered that NME1 dimers, NME7AB and NME7-X1 are all activating ligands of the MUC1* growth factor receptor and they bind to its extracellular domain, we have developed ample evidence that both NME7AB and NME7-X1 have other binding partners and can exert oncogenic effects, independent of MUC1*.

## Cc1sc2c(c1C)C(c1ccc(Cl)cc1)=N[C@@H](CC(=O)OC(C)(C)C)c1nnc(C)n1-2 [JQ1+, JQ1]
[1]; listed as JQ1(+)
  effect on primed stem cell colony size and morphology: modest effect on the size of primed stem cell colonies; also recorded: some abnormal morphology
  induction of differentiation of primed state stem cells: None of these agents appeared to induce differentiation
[1]; listed as JQI
  induction of differentiation of primed state stem cells: not primed stem cell growth
[2]
  inhibition of growth of T47D cells: inhibited growth
[3]
  up-regulation of markers of differentiation in naïve stem cells (RT-PCR): did not cause up-regulation of markers of differentiation
